Test results: PMC7363723, “Fungal Kti12 proteins display unusual linker regions and unique ATPase p-loops” (Current Genetics, 2020)

Experiments:
Type in all cases: binding
CtKti12 [1] = biological target: T1, CtKti12 (Thermochaetoides thermophila, UniProt G0SHI1); test: thermal shift assay (SYPRO Orange); conditions: 1 mM ATP, 2 mM MgCl2, 20 mM Tris-HCl pH 7.5, 150 mM NaCl, 2 mM DTT; 0.6 °C/min
T1 construct: gene CTHT_0070100; full-length, codon-optimized ORF in pET24d (NcoI/XhoI), purified from bacteria; PDB 6QP0 (earlier work) covers the ATPase domain only
T1 sequence (G0SHI1 1-378): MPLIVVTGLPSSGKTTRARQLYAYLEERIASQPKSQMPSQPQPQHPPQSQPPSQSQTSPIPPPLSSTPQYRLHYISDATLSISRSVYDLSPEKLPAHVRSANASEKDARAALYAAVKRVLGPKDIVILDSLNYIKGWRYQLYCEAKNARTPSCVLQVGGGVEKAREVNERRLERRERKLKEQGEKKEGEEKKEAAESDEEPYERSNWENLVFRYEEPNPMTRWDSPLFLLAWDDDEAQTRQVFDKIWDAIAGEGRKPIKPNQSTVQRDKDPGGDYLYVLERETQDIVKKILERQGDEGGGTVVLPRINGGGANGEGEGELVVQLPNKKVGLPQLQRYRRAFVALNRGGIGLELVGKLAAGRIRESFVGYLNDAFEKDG

CtKti12 [2] = biological target: T1, CtKti12; test: fluorescence polarization, one-site fit
CtKti12 [3] = biological target: T2, CtKti12 (Thermochaetoides thermophila, UniProt G0SHI1, K14V); test: fluorescence polarization, one-site fit
T2 construct: gene CTHT_0070100; full-length, codon-optimized ORF in pET24d (NcoI/XhoI), purified from bacteria; PDB 6QP0 (earlier work) covers the ATPase domain only

CtKti12 [4] = biological target: T3, CtKti12 (Thermochaetoides thermophila, UniProt G0SHI1, K14L); test: fluorescence polarization, one-site fit
T3 construct: gene CTHT_0070100; full-length, codon-optimized ORF in pET24d (NcoI/XhoI), purified from bacteria; PDB 6QP0 (earlier work) covers the ATPase domain only

CtKti12 [5] = biological target: T4, CtKti12 (Thermochaetoides thermophila, UniProt G0SHI1, K14A); test: fluorescence polarization, one-site fit
T4 construct: gene CTHT_0070100; full-length, codon-optimized ORF in pET24d (NcoI/XhoI), purified from bacteria; PDB 6QP0 (earlier work) covers the ATPase domain only
T4 sequence (G0SHI1 entry or part of it K14A): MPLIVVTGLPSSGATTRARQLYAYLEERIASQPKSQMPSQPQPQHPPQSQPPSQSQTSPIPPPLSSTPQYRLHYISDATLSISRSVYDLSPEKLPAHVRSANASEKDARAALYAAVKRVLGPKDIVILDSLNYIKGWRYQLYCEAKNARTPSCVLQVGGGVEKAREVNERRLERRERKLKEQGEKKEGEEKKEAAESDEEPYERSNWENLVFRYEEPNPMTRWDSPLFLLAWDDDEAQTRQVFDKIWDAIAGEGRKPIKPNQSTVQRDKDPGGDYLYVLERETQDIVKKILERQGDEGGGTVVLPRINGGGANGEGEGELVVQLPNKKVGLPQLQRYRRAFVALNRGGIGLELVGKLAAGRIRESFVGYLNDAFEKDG

T3 sequence (G0SHI1 entry or part of it K14L): as the sequence (G0SHI1 entry or part of it K14A) above, with A14L counted along it
T2 sequence (G0SHI1 entry or part of it K14V): as the sequence (G0SHI1 entry or part of it K14A) above, with A14V counted along it

For `Nc1ncnc2c1ncn2[C@@H]1O[C@H](COP(=O)(O)OP(=O)(O)OP(=O)(O)O)[C@@H](O)[C@H]1O` [ATP], the “melting point without ATP to with ATP” value (CtKti12 [1]) was 46.0 to 50.0 °C.

`CNc1ccccc1C(=O)O[C@H]1[C@@H](O)[C@H](n2cnc3c(N)ncnc32)O[C@@H]1CO[P@@](=O)(O)O[P@](=O)(O)OP(=O)(O)O` [MANT-ATP] was tested, and the Kd (CtKti12 [2]) was 1.5 ± 0.2 µM, the Kd (CtKti12 [3]) was > 100 µM and the Kd (CtKti12 [4]) was 25 ± 2.4 µM. The Kd (CtKti12 [5]) was > 100 µM.
